Like-named read-outs stand apart in the source and are kept apart here.
How the values were obtained:
[1] = target: T1, HUMAN PROTEINASE 3 (Homo sapiens, UniProt P24158); assay: Inhibition of PR3 catalyzed hydrolysis of MeO-Succ-AAPV-pNA; type: biochemical; conditions: Table IV; 45 mM TES pH 7.5, 450 mM NaCl, 10% DMSO; 0.2 mM MeO-succ-AAPV-pNA; read-out: SORC (second order rate constant, kobs /I)
T1 sequence (P24158 28-256): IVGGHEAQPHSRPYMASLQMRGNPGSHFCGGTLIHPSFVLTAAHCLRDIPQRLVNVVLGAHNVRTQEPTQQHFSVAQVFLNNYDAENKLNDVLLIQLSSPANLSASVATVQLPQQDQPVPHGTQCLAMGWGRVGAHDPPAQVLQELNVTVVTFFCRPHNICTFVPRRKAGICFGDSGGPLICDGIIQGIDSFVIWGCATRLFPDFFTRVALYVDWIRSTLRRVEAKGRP
Procedure: The PR3 catalyzed hydrolysis of MeO-Succ-AAPV-pNA was measured in a spectrophotometer monitoring absorbance at 410 nm. The enzymatic activity was determined in 45 mM TES at pH 7.5, 450 mM NaCl and 10% DMSO. The data were fit by non-linear regression to equation 1 to obtain the initial rates. The nonlinear progress curves observed with time dependent inhibitors were fit to equation 2 to obtain the first order rate constant Kobs. Results were expressed as kobs /I which is the second order rate constant (SORC) in per mole per second for inactivation of the enzyme.
Y=vs *x+[(vo -vs) (1-e^(-K.spsb.o^*x))/Ko
Kinetic constants for the inhibition of PR3 catalyzed hydrolysis of 0.2 mM MeO-succ-AAPV-pNA were determined by varying the concentration of inhibitor present in the reaction vessel.

[2] = target: T2, Human Polymorphonuclear Leukocyte Elastase (Homo sapiens, UniProt P08246); assay: Inhibition of human polymorphonuclear leukocyte elastase via hydrolysis of Boc-AAPAN or Boc-AAPVN; type: biochemical; conditions: second order rate constant for inactivation of the enzyme, read-out: Kobs /[I]
T2 sequence (P08246 30-267): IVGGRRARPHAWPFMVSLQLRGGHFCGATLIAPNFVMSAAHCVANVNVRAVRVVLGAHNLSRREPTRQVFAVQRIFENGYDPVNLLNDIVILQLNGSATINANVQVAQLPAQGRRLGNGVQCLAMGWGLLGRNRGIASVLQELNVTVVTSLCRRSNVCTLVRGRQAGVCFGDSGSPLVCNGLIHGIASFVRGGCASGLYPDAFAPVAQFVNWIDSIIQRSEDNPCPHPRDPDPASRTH
Summary of the method: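 Crude human PMN extract was added to 0.2 mM Boc-AAPAN or Boc-AAPVN substrate solution in 0.05 M TES pH 7.5 containing inhibitor in DMSO; extract volume was adjusted per batch activity. Hydrolysis was followed as ΔOD/min at 410 mμ, after a pre-check for spontaneous hydrolysis. Values are ID50 (μg/ml, 50% inhibition at 2 min), Ki (μM) or kobs/I.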

Compound	kinact/KI ([2]; pH 7.5, Table I) [M⁻¹ s⁻¹]	further results
CCC[C@@H](NC(=O)N1C(=O)C(CC)(CC)[C@@H]1Oc1ccc(C(C)N(C)CCOC)cc1)c1ccc2c(c1)OCO2 (stereo partly shown)	–	kinact/KI [1]: 31000 M⁻¹ s⁻¹; kinact/KI ([2]; pH 7.5, Table III): 1.3e+06 M⁻¹ s⁻¹
CCC[C@@H](NC(=O)N1C(=O)C(CC)(CC)[C@@H]1Oc1ccc(CN(C)CCN(C)C(=O)N(C)C)cc1)c1ccc(C)cc1 [R4=Me; R5=CH2 CH2 N(Me)CONMe2; R6=H]	850000	–
CCC[C@@H](NC(=O)N1C(=O)C(CC)(CC)[C@@H]1Oc1ccc(C(COC)N(C)CCC)cc1)c1ccc2c(c1)OCO2 (mixture of isomers) [3,3-Diethyl-1-[(R)-α-(n-propyl)-(3,4-dioxomethylene)benzylaminocarbonyl]-4-(S)-[4-{1-(RS)-(N-(n-propyl)-N-(methyl)amino)-2-methoxyethyl}phenoxy]azetidin-2-one]	–	kinact/KI ([2]; pH 7.5, Table III): 1.8e+06 M⁻¹ s⁻¹
CCC[C@@H](NC(=O)N1C(=O)C(CC)(CC)[C@@H]1Oc1ccc(CN(C)CCO)cc1)c1ccc(C)cc1 [R4=Me; R5=CH2 CH2 OH; R6=H]	560000	–
CCC[C@@H](NC(=O)N1C(=O)C(CC)(CC)[C@@H]1Oc1ccc(Cn2ccnc2CC)cc1)c1ccc(C)cc1 [R4+R5=--CHCHNCEt--; R6=H]	2.25e+06	–
CCC[C@@H](NC(=O)N1C(=O)C(CC)(CC)[C@@H]1Oc1ccc(CN2CCC(O)CC2)cc1)c1ccc(C)cc1 [R4+R5=--CH2 CH2 CH(OH)CH2 CH2 --; R6=H]	1.15e+06	–
CCC[C@@H](NC(=O)N1C(=O)C(CC)(CC)[C@@H]1Oc1ccc(CN(C)CCOC(=O)N2CCOCC2)cc1)c1ccc(C)cc1	1.4e+06	–
CCC[C@@H](NC(=O)N1C(=O)C(CC)(CC)[C@@H]1Oc1ccc(CN(C)CCOC(=O)N(C)C)cc1)c1ccc(C)cc1 [R4=Me; R5=CH2 CH2 OCONMe2; R6=H, (4S)-3,3-Diethyl-1-[(R)-α-n-propyl-(4-methyl)benzylaminocarbonyl]-4-[(4-((2-dimethylaminocarbonyloxy)ethyl)methylaminomethyl)phenoxy]azetidin-2-one]	610000	–
CCC[C@@H](NC(=O)N1C(=O)C(CC)(CC)[C@@H]1Oc1ccc(CN2CC(C)NC(C)C2)cc1)c1ccc(C)cc1 (stereo partly shown) [R4+R5=--CH2 CHMeNCHMeCH2 --; R6=H]	980000	–
CCC[C@@H](NC(=O)N1C(=O)C(CC)(CC)[C@@H]1Oc1ccc(CN(C)CCOC)cc1)c1ccc(OC)cc1	–	kinact/KI ([2]; pH 7.5, Table III): 900000 M⁻¹ s⁻¹
CCC[C@@H](NC(=O)N1C(=O)C(CC)(CC)[C@@H]1Oc1ccc(C(C)N(C)CCOC)cc1)c1ccc(C)cc1 (stereo partly drawn) [R4=Me; R5=CH2 CH2 OMe; R6=Me, (4S)-3,3-Diethyl-1-[(R)-α-n-propyl-(4-methyl)benzylaminocarbonyl]-4-[(R,S)-4-((1-(2-methoxyethyl)methylamino)ethyl)phenoxy]azetidin-2-one]	600000	–
CCC[C@@H](NC(=O)N1C(=O)C(CC)(CC)[C@@H]1Oc1ccc(CCCCN(C)Cc2ccccc2)cc1)c1ccc(C)cc1 [R4=Me; R5=Bn; n=4]	–	kinact/KI ([2]; pH 7.5, Table II): 640000 M⁻¹ s⁻¹
CCC[C@@H](NC(=O)N1C(=O)C(CC)(CC)[C@@H]1Oc1ccc(CNC(=O)Cc2c[nH]cn2)cc1)c1ccc(C)cc1 [R4=H; R5=COCH2-4-imidazolyl; R6=H, (4S)-3,3-Diethyl-1-[(R)-α-(n-propyl)-4-(methyl)benzylaminocarbonyl]-4-[(4-((4-imidazolyl)methylcarbonyl)aminomethyl)phenoxy]azetidin-2-one]	850000	–
CCC[C@@H](NC(=O)N1C(=O)C(CC)(CC)[C@@H]1Oc1ccc(CN(C)CCOC)c(Cl)c1)c1ccc(C)cc1	–	kinact/KI ([2]; pH 7.5, Table III): 1e+06 M⁻¹ s⁻¹
CCC[C@@H](NC(=O)N1C(=O)C(CC)(CC)[C@@H]1Oc1ccc(CN(CC)CCSC)cc1)c1ccc(C)cc1 [R4=Et; R5=CH2 CH2 SMe; R6=H]	690000	–
CCC[C@@H](NC(=O)N1C(=O)C(CC)(CC)[C@@H]1Oc1ccc(CN(C)CCOC)c(C)c1)c1ccc(C)cc1	–	kinact/KI ([2]; pH 7.5, Table III): 540000 M⁻¹ s⁻¹
CCC[C@@H](NC(=O)N1C(=O)C(CC)(CC)[C@@H]1Oc1ccc(Cn2ccnc2C)cc1)c1ccc(C)cc1 [R4+R5=--CHCHNCMe--; R6=H]	1.4e+06	–
CCC[C@@H](NC(=O)N1C(=O)C(CC)(CC)[C@@H]1Oc1ccc(CNC(=O)NC(C)C)cc1)c1ccc(C)cc1 [R4=H; R5=CONH isoPr; R6=H, (4S)-3,3-Diethyl-1-[(R)-α-(n-propyl)-4-(methyl)benzylaminocarbonyl]-4-[(4-((N-isopropyl)aminocarbonyl)aminomethyl)phenoxy]azetidin-2-one]	1.1e+06	–
CCC[C@@H](NC(=O)N1C(=O)C(CC)(CC)[C@@H]1Oc1ccc(CN(C)CCCOC)cc1)c1ccc(C)cc1 [R4=Me; R5=CH2 CH2 CH2 OMe; R6=H]	1.5e+06	–
CCC[C@@H](NC(=O)N1C(=O)C(CC)(CC)[C@@H]1Oc1ccc(CN(CC)CCOCCOC)cc1)c1ccc(C)cc1 [R4=Et; R5=CH2 CH2 OCH2 CH2 OMe; R6=H]	1.3e+06	–

Further lines, with some results ahead:

kinact/KI ([2]; pH 7.5, Table I) [M⁻¹ s⁻¹]	Compound	further results
850000	CCC[C@@H](NC(=O)N1C(=O)C(CC)(CC)[C@@H]1Oc1ccc(CN(C)CCN(C)C)cc1)c1ccc(C)cc1 [R4=Me; R5=CH2 CH2 NMe2; R6=H]	–
800000	CCC[C@@H](NC(=O)N1C(=O)C(CC)(CC)[C@@H]1Oc1ccc(C(COC)N(C)C(C)C)cc1)c1ccc(C)cc1 (stereo partly shown) [R4=Me; R5=i-Pr; R6=CH2 OMe]	–
1.3e+06	CCCCN(C)C(=O)OCCN(C)Cc1ccc(O[C@@H]2N(C(=O)N[C@H](CCC)c3ccc(C)cc3)C(=O)C2(CC)CC)cc1 [R4=Me; R5=CH2 CH2 OCON(Me)n-Bu; R6=H]	–
500000	CCC[C@@H](NC(=O)N1C(=O)C(CC)(CC)[C@@H]1Oc1ccc(CN(CCOC)C(C)C)cc1)c1ccc(C)cc1 [R4=i-Pr; R5=CH2 CH2 OMe; R6=H]	–
515000	CCC[C@@H](NC(=O)N1C(=O)C(CC)(CC)[C@@H]1Oc1ccc([C@H](C)N(C)CCOC)cc1)c1ccc(C)cc1 [R4=Me; R5=CH2 CH2 OMe; R6=(S)--Me, (4S)-3,3-Diethyl-4-{(S)-4-[1-((2-methoxyethyl)methylamino)ethyl]phenoxy}-1-[(R)-α-n-propyl-(4-methyl)benzylaminocarbonyl]azetidin-2-one]	–
1.15e+06	CCC[C@@H](NC(=O)N1C(=O)C(CC)(CC)[C@@H]1Oc1ccc(CN2C(C)CCCC2C)cc1)c1ccc(C)cc1 (stereo partly shown) [R4+R5=--CHMeCH2 CH2 CH2 CHMe--; R6=H]	–
600000	CCC[C@@H](NC(=O)N1C(=O)C(CC)(CC)[C@@H]1Oc1ccc(CN(C)CCOCC)cc1)c1ccc(C)cc1 [R4=Me; R5=CH2 CH2 OEt; R6=H, (4S)-3,3-Diethyl-1-[(R)-α-n-propyl-(4-methyl)benzylaminocarbonyl]-4-[(4-(2-ethoxyethyl)methylaminomethyl)phenoxy]azetidin-2-one]	–
